The source of these data is PMC7932537, “Quantitative profiling of protease specificity” (PLoS Computational Biology, 2021).

In experiment [1] the test system is MMP-2. Nature of the experiment: Substrate phage display with NGS: relative probability (RP) of P3-P1' tetramer clusters.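 Also: ratio of tetramer probability after protease selection to that in naive phage library.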 The class given is biochemical, human. Particulars: MMP2.
In experiment [2] the target is MMP-9 (Homo sapiens, UniProt P14780). Nature of the experiment: K(obs) of individual phage substrates (set of 1369). Particulars: MMP9. The class given is biochemical.
Chain of MMP-9 (P14780 94-707): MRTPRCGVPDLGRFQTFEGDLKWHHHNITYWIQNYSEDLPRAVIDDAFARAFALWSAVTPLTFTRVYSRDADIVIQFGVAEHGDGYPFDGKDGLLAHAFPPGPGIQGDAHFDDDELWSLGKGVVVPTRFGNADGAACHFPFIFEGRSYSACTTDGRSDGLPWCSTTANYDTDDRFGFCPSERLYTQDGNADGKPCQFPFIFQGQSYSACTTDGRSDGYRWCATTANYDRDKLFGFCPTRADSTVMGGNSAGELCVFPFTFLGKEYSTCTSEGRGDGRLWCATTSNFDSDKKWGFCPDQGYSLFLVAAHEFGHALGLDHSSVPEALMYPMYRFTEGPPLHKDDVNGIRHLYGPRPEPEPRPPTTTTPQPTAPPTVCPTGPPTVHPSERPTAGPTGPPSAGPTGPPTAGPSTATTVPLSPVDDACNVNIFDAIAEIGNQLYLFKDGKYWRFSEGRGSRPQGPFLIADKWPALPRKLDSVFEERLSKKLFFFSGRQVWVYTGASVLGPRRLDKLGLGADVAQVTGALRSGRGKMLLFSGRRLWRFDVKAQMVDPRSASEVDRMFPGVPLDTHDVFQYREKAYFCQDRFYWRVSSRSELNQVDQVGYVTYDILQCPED
The target of experiment [3] is T1, MMP-2 (Homo sapiens, UniProt P08253).
T1 sequence (P08253 110-660): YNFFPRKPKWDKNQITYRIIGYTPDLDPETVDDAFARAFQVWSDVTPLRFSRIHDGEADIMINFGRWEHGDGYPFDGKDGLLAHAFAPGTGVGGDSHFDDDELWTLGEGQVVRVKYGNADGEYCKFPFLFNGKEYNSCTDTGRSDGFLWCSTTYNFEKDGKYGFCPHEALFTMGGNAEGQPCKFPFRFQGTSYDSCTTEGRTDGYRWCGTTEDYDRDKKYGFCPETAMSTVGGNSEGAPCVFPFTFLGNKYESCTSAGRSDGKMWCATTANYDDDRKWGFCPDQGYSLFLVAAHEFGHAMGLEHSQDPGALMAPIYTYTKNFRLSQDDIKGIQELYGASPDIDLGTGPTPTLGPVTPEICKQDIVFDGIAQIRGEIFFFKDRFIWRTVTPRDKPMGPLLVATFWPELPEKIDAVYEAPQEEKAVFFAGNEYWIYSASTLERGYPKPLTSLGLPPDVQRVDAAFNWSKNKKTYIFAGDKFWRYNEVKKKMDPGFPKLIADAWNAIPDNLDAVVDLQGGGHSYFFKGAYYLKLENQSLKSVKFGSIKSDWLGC
Described as above. The class given is biochemical. Particulars: MMP2.

[4] abbreviates: RP of the P3-P1' tetramer contained in the substrate.
Setting [5] is: individual phage substrate of the set of 1369 peptides, dash in the sequence marks the cleavage position.
Setting [6] is: individual phage substrate of the set of 1369 peptides, cleavage position marked by '-'.
Setting [7] is: RP of the P3-P1' tetramer contained in the substrate (substrate phage display with NGS).
Where [8] appears, read: individual phage substrates, set of 1369 peptides, hyphen in sequence marks cleavage position.
Setting [9] is: individual phage substrates, set of 1369 peptides, cleavage position marked by hyphen in sequence.

SGPMA-LSRTA: in experiment [1] (setting [4]), the “relative probability (RP)” value is given as 34.1737. Moreover, the “Kobs” value in experiment [2] (setting [5]) was 12792.1 M⁻¹ s⁻¹; in experiment [3] (setting [6]) it was 8321.48 M⁻¹ s⁻¹.
For SGPRS-LYTTA the same measures were 33.3704, 12792.1 M⁻¹ s⁻¹ and 12792.1 M⁻¹ s⁻¹.
The corresponding values for KFWFN-LTASG are 0, 0 M⁻¹ s⁻¹ and 0 M⁻¹ s⁻¹.
For GYPRN-IGTAS the same measures were 31.9621, 7386.83 M⁻¹ s⁻¹ and 8941.32 M⁻¹ s⁻¹.
For LAWAH-ITASG, the “relative probability (RP)” value in experiment [1] (setting [4]) was 0.05752. Also, the “Kobs” value was found to be 0 M⁻¹ s⁻¹ in experiment [2] (setting [5]) and 1030.73 M⁻¹ s⁻¹ in experiment [3] (setting [6]).
The corresponding values for SGARA-MKWTA are 25.2992, 2837.92 M⁻¹ s⁻¹ and 1373.05 M⁻¹ s⁻¹.
Turning to GFPLM-YATAS, the “relative probability (RP)” value in experiment [1] (setting [4]) is reported as 17.2027. For the same substance, the “Kobs” value in experiment [2] (setting [5]) was 1763.55 M⁻¹ s⁻¹; in experiment [3] (setting [6]) it was 142.481 M⁻¹ s⁻¹.
For SGTLN-LYNTA the same measures were 2.764, 0 M⁻¹ s⁻¹ and 0 M⁻¹ s⁻¹.
For LVGRA-LTASG the same measures were 7.944, 2476.66 M⁻¹ s⁻¹ and 6688.74 M⁻¹ s⁻¹.
EVARA-MTASG: the “relative probability (RP)” value in experiment [1] (setting [4]) worked out at 25.2992. Moreover, the “Kobs” value in experiment [2] (setting [5]) worked out at 5090.5 M⁻¹ s⁻¹; in experiment [3] (setting [6]) it was 7015.91 M⁻¹ s⁻¹.
For the substance ARVRH-LTASG, the “relative probability (RP)” value in experiment [1] (setting [4]) amounted to 25.4239. Moreover, the “Kobs” value came out at 4335.13 M⁻¹ s⁻¹ in experiment [2] (setting [5]) and 7815.03 M⁻¹ s⁻¹ in experiment [3] (setting [6]).
For AHYAS-LTASG the same measures were 26.9916, 0 M⁻¹ s⁻¹ and 10866.7 M⁻¹ s⁻¹.
For GPVYN-LRTAS the same measures were 19.1818, 12792.1 M⁻¹ s⁻¹ and 5269.78 M⁻¹ s⁻¹.
For the substance RRPTN-LTASG, the “relative probability (RP)” value in experiment [1] (setting [4]) is 31.0288. In addition, the “Kobs” value in experiment [2] (setting [5]) and in experiment [3] (setting [6]) was 12792.1 M⁻¹ s⁻¹ each time.
GMAQY-LTASG: the “relative probability (RP)” value in experiment [1] (setting [7]) amounted to 7.443. Besides, the “Kobs” value in experiment [2] (setting [8]) worked out at 762.325 M⁻¹ s⁻¹; in experiment [3] (setting [9]), 4205.91 M⁻¹ s⁻¹.
Turning to SGSHG-LRSTA, the “relative probability (RP)” value in experiment [1] (setting [4]) stood at 0.2009. Besides, the “Kobs” value was found to be 1154.21 M⁻¹ s⁻¹ in experiment [2] (setting [5]) and 1763.55 M⁻¹ s⁻¹ in experiment [3] (setting [6]).
The corresponding values for IGALA-LTASG are 22.1184, 12792.1 M⁻¹ s⁻¹ and 12792.1 M⁻¹ s⁻¹.
In the case of RQVRY-LTASG, the “relative probability (RP)” value in experiment [1] (setting [7]) is reported as 18.3724. The figures for the “Kobs” value in experiment [2] (setting [8]) and in experiment [3] (setting [9]) were 7015.91 M⁻¹ s⁻¹ and 8321.48 M⁻¹ s⁻¹, respectively.
For the substance MSPRW-LTASG, the “relative probability (RP)” value in experiment [1] (setting [4]) was determined as 34.1809. For the same substance, the “Kobs” value in experiment [2] (setting [5]) and in experiment [3] (setting [6]) was 12792.1 M⁻¹ s⁻¹ in each case.
Turning to ERVWA-ITASG, the “relative probability (RP)” value in experiment [1] (setting [4]) is given as 3.219. The “Kobs” value was determined as 3438.54 M⁻¹ s⁻¹ in experiment [2] (setting [5]) and 1239.69 M⁻¹ s⁻¹ in experiment [3] (setting [6]).
For TSPVA-LTASG the same measures were 34.2983, 12792.1 M⁻¹ s⁻¹ and 12792.1 M⁻¹ s⁻¹.
Turning to VRWSW-LTASG, the “relative probability (RP)” value in experiment [1] (setting [4]) is 7.878. The “Kobs” value was 0 M⁻¹ s⁻¹ in experiment [2] (setting [5]) and 2038.8 M⁻¹ s⁻¹ in experiment [3] (setting [6]).
In the case of SLFLH-MTASG, in experiment [1] (setting [7]), the “relative probability (RP)” value turned out to be 0.2069. Further, the “Kobs” value in experiment [2] (setting [8]) is 0 M⁻¹ s⁻¹; in experiment [3] (setting [9]), 142.481 M⁻¹ s⁻¹.
On to VMVWN-ITASG, for which the “relative probability (RP)” value in experiment [1] (setting [7]) worked out at 4.0144. Moreover, the “Kobs” value in experiment [2] (setting [8]) worked out at 8321.48 M⁻¹ s⁻¹; in experiment [3] (setting [9]) it was 2761.81 M⁻¹ s⁻¹.
As to PRVHH-LTASG, the “relative probability (RP)” value in experiment [1] (setting [4]) stood at 14.1228. The “Kobs” value amounted to 2615.58 M⁻¹ s⁻¹ in experiment [2] (setting [5]) and 6396.07 M⁻¹ s⁻¹ in experiment [3] (setting [6]).
The corresponding values for NRVEM-LTASG are 2.124, 0 M⁻¹ s⁻¹ and 261.974 M⁻¹ s⁻¹.
For the substance QHWGG-LTASG, in experiment [1] (setting [7]), the “relative probability (RP)” value was found to be 21.3794. In addition, the “Kobs” value in experiment [2] (setting [8]) worked out at 386.839 M⁻¹ s⁻¹; in experiment [3] (setting [9]) it was 12792.1 M⁻¹ s⁻¹.
In the case of TATNW-LTASG, in experiment [1] (setting [4]), the “relative probability (RP)” value is 15.348. Besides, the figures for the “Kobs” value in experiment [2] (setting [5]) and in experiment [3] (setting [6]) were 0 M⁻¹ s⁻¹ and 5461.43 M⁻¹ s⁻¹, respectively.
For ERFSH-LTASG the same measures were 16.5216, 231.616 M⁻¹ s⁻¹ and 2344.36 M⁻¹ s⁻¹.
For GSGYS-LIALT, the “relative probability (RP)” value in experiment [1] (setting [7]) came to 0.04707. In addition, the “Kobs” value in experiment [2] (setting [8]) and in experiment [3] (setting [9]) was 142.481 M⁻¹ s⁻¹ each time.
In the case of RDLSH-LTASG, the “relative probability (RP)” value in experiment [1] (setting [7]) is recorded as 29.8814. The “Kobs” value came out at 261.974 M⁻¹ s⁻¹ in experiment [2] (setting [8]) and 9740.44 M⁻¹ s⁻¹ in experiment [3] (setting [9]).
The corresponding values for GVLQK-LVTAS are 13.1993, 0 M⁻¹ s⁻¹ and 654.784 M⁻¹ s⁻¹.
As for GQPRS-WRTAS, the “relative probability (RP)” value in experiment [1] (setting [4]) worked out at 32.796. Moreover, the “Kobs” value was determined as 8941.32 M⁻¹ s⁻¹ in experiment [2] (setting [5]) and 9740.44 M⁻¹ s⁻¹ in experiment [3] (setting [6]).
Regarding GLPMH-LTASG, the “relative probability (RP)” value in experiment [1] (setting [4]) stood at 30.095. For the same substance, the results for the “Kobs” value in experiment [2] (setting [5]) and in experiment [3] (setting [6]) were 10866.7 M⁻¹ s⁻¹ and 7386.83 M⁻¹ s⁻¹, respectively.
Turning to SGAFN-LYSTA, the “relative probability (RP)” value in experiment [1] (setting [4]) stood at 16.2959. Moreover, the “Kobs” value in experiment [2] (setting [5]) and in experiment [3] (setting [6]) was 12792.1 M⁻¹ s⁻¹ each time.
In the case of NTSAW-LTASG, in experiment [1] (setting [7]), the “relative probability (RP)” value is 18.9346. Besides, the “Kobs” value was 386.839 M⁻¹ s⁻¹ in experiment [2] (setting [8]) and 6688.74 M⁻¹ s⁻¹ in experiment [3] (setting [9]).
As to GRIYE-LWTAS, in experiment [1] (setting [7]), the “relative probability (RP)” value is listed as 0.2382. Besides, the results for the “Kobs” value in experiment [2] (setting [8]) and in experiment [3] (setting [9]) were 1373.05 M⁻¹ s⁻¹ and 585.336 M⁻¹ s⁻¹, respectively.
On to VIYGN-LTASG, for which the “relative probability (RP)” value in experiment [1] (setting [4]) came to 24.0019. In addition, the results for the “Kobs” value in experiment [2] (setting [5]) and in experiment [3] (setting [6]) were 0 M⁻¹ s⁻¹ and 8941.32 M⁻¹ s⁻¹, respectively.
The corresponding values for GSGRN-LRLQT are 8.812, 113.394 M⁻¹ s⁻¹ and 551.253 M⁻¹ s⁻¹.
As to AHFAH-LTASG, the “relative probability (RP)” value in experiment [1] (setting [7]) is 19.6504. In addition, the “Kobs” value in experiment [2] (setting [8]) came out at 0 M⁻¹ s⁻¹; in experiment [3] (setting [9]), 2687.73 M⁻¹ s⁻¹.
Turning to EQLSF-LTASG, in experiment [1] (setting [7]), the “relative probability (RP)” value is on record as 14.5333. Also, the “Kobs” value in experiment [2] (setting [8]) turned out to be 0 M⁻¹ s⁻¹; in experiment [3] (setting [9]) it was 12792.1 M⁻¹ s⁻¹.
As to SGVLG-LIGTA, the “relative probability (RP)” value in experiment [1] (setting [7]) amounted to 24.4128. The “Kobs” value in experiment [2] (setting [8]) and in experiment [3] (setting [9]) was 12792.1 M⁻¹ s⁻¹ in each case.
For PRVEA-LTASG, the “relative probability (RP)” value in experiment [1] (setting [4]) is reported as 10.756. The “Kobs” value in experiment [2] (setting [5]) came to 231.616 M⁻¹ s⁻¹; in experiment [3] (setting [6]), 4205.91 M⁻¹ s⁻¹.
Regarding TVSYA-LTASG, the “relative probability (RP)” value in experiment [1] (setting [7]) was determined as 4.7967. Besides, the “Kobs” value in experiment [2] (setting [8]) worked out at 2687.73 M⁻¹ s⁻¹; in experiment [3] (setting [9]), 1154.21 M⁻¹ s⁻¹.
